The results in this text go back to paper PMC9992855, “Functional polyamine metabolic enzymes and pathways encoded by the virosphere” (Proceedings of the National Academy of Sciences of the …, 2023).

Assay [1] deals with T1, UCP01 AdoMetDC homolog (pyruvoyl-dependent ODC).
T1 construct: gene speD; 117 aa; recombinant, purified; pyruvoyl enzyme
In words: decarboxylase activity assay. The format is biochemical, uncultured Myoviridae sp. As to conditions: 26 °C. The text has this: decarboxylase activity assay on UCP01 AdoMetDC homolog (pyruvoyl-dependent ODC)

A further assay has as its system T2, KNV1 arginase homolog.
T2 construct: expressed in E. coli, purified
Put plainly: released urea detection. The format is biochemical, Klosneuvirus KNV1.

Assay [2] deals with T3, Pelagiphage HTVC201P "AdoMetDC" (pyruvoyl-dependent ADC).
T3 construct: gene speD; 122 aa; recombinant, purified; class 1b AdoMetDC homolog, pyruvoyl enzyme
Put plainly: decarboxylase activity assay. The format is biochemical, Pelagibacter phage HTVC201P. As to conditions: 27 °C. The text has this: decarboxylase activity assay on Pelagiphage HTVC201P "AdoMetDC" (pyruvoyl-dependent ADC)

Assay [3] deals with T4, UCP04 AdoMetDC homolog (pyruvoyl-dependent ODC).
T4 construct: gene speD
The settings on record: 26 °C.
From the text: decarboxylase activity assay on UCP04 AdoMetDC homolog (pyruvoyl-dependent ODC)

Assay [4] has as its system T5, UCP03 AdoMetDC homolog (pyruvoyl-dependent ODC).
T5 construct: gene speD
As to conditions: 26 °C.
From the text: decarboxylase activity assay on UCP03 AdoMetDC homolog (pyruvoyl-dependent ODC)

For assay [5], the system named is T6, UCP02 AdoMetDC homolog (pyruvoyl-dependent ODC).
T6 construct: gene speD
As to conditions: 26 °C.
From the text: decarboxylase activity assay on UCP02 AdoMetDC homolog (pyruvoyl-dependent ODC)

The test system of another assay is Klosneuvirus KNV1 ODC. The settings on record: 26 °C.
In assay [6] the test system is T7, LBP AdoMetDC homolog (pyruvoyl-dependent ODC).
T7 construct: gene speD
As to conditions: 26 °C.
From the text: decarboxylase activity assay on LBP AdoMetDC homolog (pyruvoyl-dependent ODC)

The test system of assay [7] is Yellowstone Lake phycodnavirus 2 ODC. As to conditions: 26 °C.
From the text: decarboxylase activity assay on Yellowstone Lake phycodnavirus 2 ODC
The next assay relates to T8, Klosneuvirus KNV1 APAH.
T8 construct: 345 aa; expressed in E. coli, purified
In words: colorimetric acetate release. It is filed as biochemical. The settings on record: 26 °C. The text has this: colorimetric acetate release on Klosneuvirus KNV1 APAH

The test system of another assay is T9, Hyperionvirus sp. APAH.
T9 construct: 351 aa; expressed in E. coli, purified
Put plainly: colorimetric acetate release. The format is biochemical. The settings on record: 26 °C. The source says: colorimetric acetate release on Hyperionvirus sp. APAH

Turning to `N=C(N)NCCC[C@H](N)C(=O)O` [L-arginine], the Michaelis-Menten constant (Km) (as a rule, the concentration of substrate that gives half-maximal velocity) in [1] stood at 2200 ± 290 µM; in the assay on KNV1 arginase homolog, 1300 ± 160 µM; in assay [2] it was 870 ± 110 µM.
For the compound `NCCC[C@H](N)C(=O)O` [L-ornithine], the Km in assay [3] came to 440 ± 40 µM; in assay [4] it was 620 ± 10 µM; in assay [5], 2400 ± 190 µM; with Klosneuvirus KNV1 ODC, 430 ± 20 µM; in assay [6], 3800 ± 430 µM; in assay [7], 540 ± 200 µM. Besides, in assay [1], the Km worked out at 5500 ± 290 µM.
Regarding `CC(=O)NCCCNCCCCN` [N^1-acetylspermidine], the Km was 240 ± 20 µM in the assay with Klosneuvirus KNV1 APAH and 1600 ± 160 µM in the assay with Hyperionvirus sp. APAH.
As for `CC(=O)NCCCCNCCCN` [N^8-acetylspermidine], the Michaelis constant (Km) in the assay on Klosneuvirus KNV1 APAH turned out to be 450 ± 10 µM; in the assay on Hyperionvirus sp. APAH, 5000 ± 730 µM.
